Data on 21 compounds can be found in US8871728B2, “Non-peptide macrocyclic histone deacetylese (HDAC) inhibitors and methods of making and using thereof” (Georgia Tech Research Corporation, priority 2007, dated 2014).

Experiment [1] deals with HeLa nuclear extract HDAC1/2. The experiment in a line: Fluor de Lys HDAC inhibition, HeLa nuclear extract. The conditions noted are these: HeLa nuclear extract; average of three independent experiments; Table 4; read-out: HDAC ½. Format: biochemical, human. An excerpt: Fluor de Lys™ is a fluorescence based HDAC activity assay comprising a combination of fluorogenic Histone deAcetylase Lysyl substrate and a developer. The kit is a highly sensitive and convenient alternative to radiolabeled, acetylated histones or peptide/HPLC methods for the assay of histone deacetylases. This assay is based on the ability of HeLa nuclear extract, which is enriched in HDAC activity, to mediate the deacetylation of the acetylated lysine side chain of the Fluor de Lys substrate. The assay procedure requires two steps. First, incubation of the HeLa nuclear extract with the Fluor de Lys substrate results in substrate deacetylation and thus sensitizes it to the second step. In the second step, treatment of the deacetylated substrate with the Fluor de Lys developer produces a fluorophore. The substrate-developer reaction, under normal circumstances goes to completion in less than 1 min at 25° C. The kit used was the Fluorimetric Assay/Drug Discovery Kit—AK-500 Manual Fluorescent Assay System available from BIOMOL® International, Plymouth Meeting, Pa.
Each IC50 value was obtained by averaging three independent experiments.

The next experiment addresses HDAC6 (Homo sapiens (Human), UniProt Q9UBN7). The experiment in a line: SAMDI mass spectrometry HDAC inhibition assay. Format: biochemical. To be noted: for IC50 / HDAC6 inhibition, symbol: SAMDI; for IC50: read-out: HDAC6 IC50; for inhibition at 10 µM: read-out: HDAC6 % inhibition. As for the experimental part:
(§1) There is precedence that fluorescently labeled substrates can perturb enzyme activity and the effect of inhibitors. […] Additionally, 3-hydroxypyridine-2-ones are highly colored solids and might lead to false positive signals. Mindful of these facts, a label-free SAMDI (self-assembled monolayers for MALDI) mass spectrometry assay was also used to assess HDAC inhibition.
The SAMDI technique, wherein self-assembled monolayers (SAM) of alkanethiolates on gold are analyzed by matrix assisted laser desorption/ionization (MALDI) mass spectrometry, has been widely used to characterize many biochemical activities, including the deacetylase enzyme family. The SAMDI assay was used to measure the inhibition constant (K1) of fragments against HDAC1, HDAC6 and HDAC8 using a previously identified preferred HDAC substrate.

Another experiment concerns the target HDAC1 (Homo sapiens (Human), UniProt Q13547). Put plainly: SAMDI mass spectrometry HDAC inhibition assay. The class given is biochemical. To be noted: for HDAC1 inhibition, symbol: SAMDI. As for the experimental part: as §1
(§2) The SAMDI technique, wherein self-assembled monolayers (SAM) of alkanethiolates on gold are analyzed by matrix assisted laser desorption/ionization (MALDI) mass spectrometry, has been widely used to characterize many biochemical activities, including the deacetylase enzyme family.

Experiment [2] concerns the target T1, HDAC8 (Homo sapiens (Human), UniProt Q9BY41). The experiment in a line: SAMDI mass spectrometry HDAC inhibition assay. Format: biochemical. The conditions noted are these: for IC50: SAMDI. As to the method: as §1, §2
Experiment [3] deals with T1, HDAC8. Put plainly: Fluor de Lys HDAC8 inhibition. Format: biochemical. The conditions noted are these: average of three independent experiments; Table 4; read-out: HDAC 8.
The mark [4] stands for this setting: read-out: HDAC8 activity (IC50).
Setting [5] is: at 10 μM, given if the IC50 was above 10 μM.

Chain of HDAC1 (Q13547 whole entry): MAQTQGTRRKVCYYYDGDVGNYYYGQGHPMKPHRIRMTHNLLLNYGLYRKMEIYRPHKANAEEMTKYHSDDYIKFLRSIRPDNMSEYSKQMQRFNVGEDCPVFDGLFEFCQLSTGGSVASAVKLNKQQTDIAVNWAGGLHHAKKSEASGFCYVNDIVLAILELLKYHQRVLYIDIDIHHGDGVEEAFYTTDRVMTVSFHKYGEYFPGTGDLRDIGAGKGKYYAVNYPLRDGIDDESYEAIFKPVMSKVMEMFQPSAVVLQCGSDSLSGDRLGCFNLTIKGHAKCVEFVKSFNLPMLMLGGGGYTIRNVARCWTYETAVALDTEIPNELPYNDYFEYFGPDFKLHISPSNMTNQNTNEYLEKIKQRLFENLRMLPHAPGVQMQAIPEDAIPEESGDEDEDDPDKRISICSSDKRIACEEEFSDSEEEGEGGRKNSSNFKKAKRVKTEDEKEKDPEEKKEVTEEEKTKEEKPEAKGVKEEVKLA
T1 sequence (Q9BY41 whole entry): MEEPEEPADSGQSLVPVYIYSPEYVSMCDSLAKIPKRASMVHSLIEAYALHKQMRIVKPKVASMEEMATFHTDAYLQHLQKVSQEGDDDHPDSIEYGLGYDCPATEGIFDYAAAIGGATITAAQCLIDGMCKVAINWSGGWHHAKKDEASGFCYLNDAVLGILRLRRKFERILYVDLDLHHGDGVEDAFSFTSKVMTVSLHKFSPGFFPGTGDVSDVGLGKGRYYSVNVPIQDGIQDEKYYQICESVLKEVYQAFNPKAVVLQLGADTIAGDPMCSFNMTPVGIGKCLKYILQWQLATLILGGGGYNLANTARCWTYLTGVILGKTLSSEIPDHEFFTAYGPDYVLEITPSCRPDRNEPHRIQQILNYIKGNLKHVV
Chain of HDAC6 (Q9UBN7 whole entry): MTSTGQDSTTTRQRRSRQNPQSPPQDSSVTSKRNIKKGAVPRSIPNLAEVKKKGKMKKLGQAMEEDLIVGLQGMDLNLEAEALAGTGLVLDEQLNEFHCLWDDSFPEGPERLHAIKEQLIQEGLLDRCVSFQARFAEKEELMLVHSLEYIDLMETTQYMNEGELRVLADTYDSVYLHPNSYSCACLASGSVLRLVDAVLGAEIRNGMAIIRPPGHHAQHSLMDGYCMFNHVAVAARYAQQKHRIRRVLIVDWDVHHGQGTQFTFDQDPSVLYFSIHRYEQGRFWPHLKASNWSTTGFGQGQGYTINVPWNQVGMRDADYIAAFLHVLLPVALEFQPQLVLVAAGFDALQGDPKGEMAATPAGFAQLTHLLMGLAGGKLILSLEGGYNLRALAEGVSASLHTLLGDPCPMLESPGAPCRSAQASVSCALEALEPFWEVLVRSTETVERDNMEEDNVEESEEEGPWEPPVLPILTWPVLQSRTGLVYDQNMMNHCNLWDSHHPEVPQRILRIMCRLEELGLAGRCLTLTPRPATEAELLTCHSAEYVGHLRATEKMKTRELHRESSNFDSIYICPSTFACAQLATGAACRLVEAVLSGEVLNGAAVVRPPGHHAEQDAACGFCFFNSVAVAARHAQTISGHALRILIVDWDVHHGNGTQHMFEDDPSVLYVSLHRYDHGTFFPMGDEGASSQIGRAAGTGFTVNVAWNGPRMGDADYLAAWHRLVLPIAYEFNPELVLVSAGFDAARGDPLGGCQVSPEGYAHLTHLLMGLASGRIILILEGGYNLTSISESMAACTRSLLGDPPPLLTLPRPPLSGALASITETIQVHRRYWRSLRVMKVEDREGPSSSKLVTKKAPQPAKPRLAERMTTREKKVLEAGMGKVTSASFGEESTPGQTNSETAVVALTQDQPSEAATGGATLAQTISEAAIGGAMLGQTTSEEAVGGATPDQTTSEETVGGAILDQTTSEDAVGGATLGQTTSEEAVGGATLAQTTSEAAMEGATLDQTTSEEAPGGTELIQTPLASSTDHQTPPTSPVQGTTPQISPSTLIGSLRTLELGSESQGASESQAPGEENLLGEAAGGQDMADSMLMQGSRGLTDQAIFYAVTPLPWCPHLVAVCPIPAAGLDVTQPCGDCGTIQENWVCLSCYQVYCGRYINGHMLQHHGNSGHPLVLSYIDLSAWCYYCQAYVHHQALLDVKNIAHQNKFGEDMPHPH

As for `CC[C@H]1OC(=O)[C@H](C)[C@@H](O[C@H]2C[C@@](C)(OC)[C@@H](O)[C@H](C)O2)[C@H](C)[C@@H](O[C@@H]2O[C@H](C)C[C@H](N(C)Cc3ccc(-c4cn(CCCCCCCCCC(=O)NO)nn4)cc3)[C@H]2O)[C@](C)(OC)C[C@@H](C)C(=O)[C@H](C)[C@@H](O)[C@]1(C)O` [Compound 30, Clarithromycin-N-Phenyltriazolyldecahydroxamic acid], the IC50 in experiment [1] worked out at 223 nM.
For `Oc1cccn(Cc2ccc(-c3ccccc3)cc2)c1=S` [Compound 144c, 1-(1,1′-Biphenylmethyl)-3-hydroxypyridine-2-thione], the results for the IC50 at HDAC6 and on HDAC8 [2] (read-out: HDAC8 IC50) were 847 ± 188 nM and 4280 ± 1550 nM, respectively. Further, on HDAC1, the “HDAC1 inhibition, symbol” value is reported as “NI (No significant Inhibition (below 20% Inhibition))”.
One may read the inhibition as the share of the control response that was lost under treatment. Turning to `N#Cc1cccc(-c2ccc(Cn3cccc(O)c3=S)cc2)c1` [Compound 149b, 1-(3-Cyano-(1,1′-biphenylmethyl))-3-hydroxyoxypyridine-2-thione], on HDAC6, the inhibition at 10 µM came to 44%. The “HDAC1 inhibition, symbol” value on HDAC1 is “NI (No significant Inhibition (below 20% Inhibition))”. Further, the results for the IC50 on HDAC8 [2] (read-out: HDAC8 IC50) and at HDAC8 [2] (setting [4]) were 1700 ± 717 nM and roughly 2000 nM, respectively.
For the compound `Oc1cccn(Cc2ccc(-c3ccncc3)cc2)c1=S` [Compound 149i, 1-(4-(Pyridin-4-yl)benzyl)-3-hydroxypyridine-2-thione], the IC50 on HDAC6 stood at 2200 ± 355 nM; on HDAC8 [2] (read-out: HDAC8 IC50), 2780 ± 323 nM. Besides, the “HDAC1 inhibition, symbol” value at HDAC1 is on record as “NI (No significant Inhibition (below 20% Inhibition))”.
In the case of `Cc1ccc(-c2ccc(Cn3cccc(O)c3=O)cc2)cc1` [Compound 148d, 1-(4-Methyl-(1,1′-biphenylmethyl))-3-hydroxyoxypyridine-2-one], the “HDAC6 inhibition, symbol” value at HDAC6 was “NI (No significant Inhibition (below 20% Inhibition))”. The “HDAC1 inhibition, symbol” value on HDAC1 is given as “NI (No significant Inhibition (below 20% Inhibition))”. For the same compound, the inhibition at 10 µM against HDAC8 [2] (setting [5]) came to 25%.
Consider `N#Cc1ccc(-c2cn(CCCCCn3cccc(O)c3=O)nn2)cc1` [Compound 166d, 1-(4-Benzonitrile)triazolylpentyl-3-hydroxypyridine-2-one], for which the “HDAC6 inhibition, symbol” value at HDAC6 is given as “NI (No significant Inhibition (below 20% Inhibition))”. Besides, the results for the inhibition at 10 µM against HDAC1 (setting [5]) and against HDAC8 [2] (setting [5]) were 70% and 26%, respectively.
As to `N#Cc1ccc(-c2ccc(Cn3cccc(O)c3=S)cc2)cc1` [Compound 149a, 1-(4-Cyano-(1,1′-biphenylmethyl))-3-hydroxyoxypyridine-2-thione], the IC50 is 957 ± 159 nM on HDAC6, 2080 ± 459 nM on HDAC8 [2] (read-out: HDAC8 IC50) and roughly 2000 nM at HDAC8 [2] (setting [4]). Also, the “HDAC1 inhibition, symbol” value on HDAC1 was “NI (No significant Inhibition (below 20% Inhibition))”.
As for `Cc1ccc(-c2ccc(Cn3cccc(O)c3=S)cc2)cc1` [Compound 149d, 1-(4-Methyl-(1,1′-biphenylmethyl))-3-hydroxyoxypyridine-2-thione], the IC50 at HDAC6 stood at 454 ± 42 nM; on HDAC8 [2] (read-out: HDAC8 IC50), 800 ± 304 nM. For the same compound, at HDAC1, the “HDAC1 inhibition, symbol” value is “NI (No significant Inhibition (below 20% Inhibition))”.
Regarding `O=c1c(O)cccn1Cc1ccccc1` [Compound 142b, 1-Benzyl-3-hydroxypyridine-2-one], at HDAC6, the “HDAC6 inhibition, symbol” value was “NI (No significant Inhibition (below 20% Inhibition))”. In addition, at HDAC1, the “HDAC1 inhibition, symbol” value was “NI (No significant Inhibition (below 20% Inhibition))”. Moreover, at HDAC8 [2] (setting [5]), the inhibition at 10 µM turned out to be 8%.
For the compound `Cc1ccccc1-c1ccc(Cn2cccc(O)c2=O)cc1` [Compound 148f, 1-(2-Methyl-(1,1′-biphenylmethyl))-3-hydroxyoxypyridine-2-one], on HDAC6, the “HDAC6 inhibition, symbol” value was “NI (No significant Inhibition (below 20% Inhibition))”. For the same compound, the “HDAC1 inhibition, symbol” value on HDAC1 is “NI (No significant Inhibition (below 20% Inhibition))”. This compound yielded an inhibition at 10 µM against HDAC8 [2] (setting [5]) of 9%.
For the compound `CN(C)c1ccc(-c2cn(CCCCCn3cccc(O)c3=S)nn2)cc1` [Compound 167f], the IC50 at HDAC6 worked out at 1010 ± 425 nM; at HDAC8 [2] (read-out: HDAC8 IC50), 1480 nM. The inhibition at 10 µM against HDAC1 (setting [5]) turned out to be 28%.
`O=c1c(O)cccn1CCn1cc(-c2ccccc2)nn1` [Compound 159a, 1-Phenyltriazolylethyl-3-hydroxypyridine-2-one]: the “HDAC6 inhibition, symbol” value on HDAC6 was “NI (No significant Inhibition (below 20% Inhibition))”. Moreover, the figures for the inhibition at 10 µM at HDAC1 (setting [5]) and on HDAC8 [2] (setting [5]) were 12% and 15%, respectively.
Consider `CC[C@H]1OC(=O)[C@H](C)[C@@H](O[C@H]2C[C@@](C)(OC)[C@@H](O)[C@H](C)O2)[C@H](C)[C@@H](O[C@@H]2O[C@H](C)C[C@H](N(C)Cc3ccc(NC(=O)CCCCCCC(=O)NO)cc3)[C@H]2O)[C@](C)(O)C[C@@H](C)CN(C)[C@H](C)[C@@H](O)[C@]1(C)O` [Compound 36, Azithromycin-arylalkyl hydroxamic acid], for which the IC50 in experiment [1] came out at 107 nM; at HDAC8 [3], 6680 nM.
For `O=c1c(O)cccn1CCCCCn1cc(-c2ccccc2)nn1` [Compound 159d, 1-Phenyltriazolylpentyl-3-hydroxypyridine-2-one], the “HDAC6 inhibition, symbol” value on HDAC6 was “NI (No significant Inhibition (below 20% Inhibition))”. For the same compound, the HDAC1 % inhibition on HDAC1 (setting [5]) worked out at 43%. Moreover, the HDAC8 % inhibition at HDAC8 [2] (setting [5]) came out at 30%.
For the compound `CC[C@H]1OC(=O)[C@H](C)[C@@H](O)[C@H](C)[C@@H](O[C@@H]2O[C@H](C)C[C@H](N(C)Cc3ccc(NC(=O)CCCCCCC(=O)NO)cc3)[C@H]2O)[C@](C)(O)C[C@@H](C)CN(C)[C@H](C)[C@@H](O)[C@]1(C)O` [Compound 38, Desclasinose-azithromycin-arylalkyl hydroxamic acid], the IC50 in experiment [1] was determined as 110 nM; at HDAC8 [3] it was 2320 nM.
As to `CN(C)c1ccc(-c2cn(CCCCCn3cccc(O)c3=O)nn2)cc1` [Compound 166f, 1-(4-(N,N-dimethylaniline))triazolylpentyl-3-hydroxypyridine-2-one], the “HDAC6 inhibition, symbol” value on HDAC6 is “NI (No significant Inhibition (below 20% Inhibition))”. In addition, the inhibition at 10 µM against HDAC1 (setting [5]) is 59%; against HDAC8 [2] (setting [5]) it was 28%.
For `CN(C)c1ccc(-n2cc(Cn3cccc(O)c3=O)nn2)cc1` [Compound 152b, 1-(4-Dimethylamino)phenylltriazolylmethyl-3-hydroxypyridine-2-one], the “HDAC6 inhibition, symbol” value at HDAC6 is listed as “NI (No significant Inhibition (below 20% Inhibition))”. On HDAC1, the “HDAC1 inhibition, symbol” value is on record as “NI (No significant Inhibition (below 20% Inhibition))”. Also, at HDAC8 [2] (setting [5]), the inhibition at 10 µM is 8%.
In the case of `N#Cc1cccc(-c2ccc(Cn3cccc(O)c3=O)cc2)c1` [Compound 148b, 1-(3-Cyano-(1,1′-biphenylmethyl))-3-hydroxyoxypyridine-2-one], the “HDAC6 inhibition, symbol” value at HDAC6 was “NI (No significant Inhibition (below 20% Inhibition))”. Also, the “HDAC1 inhibition, symbol” value on HDAC1 is “NI (No significant Inhibition (below 20% Inhibition))”. Besides, 10 µM produced 9% inhibition on HDAC8 [2] (setting [5]).
With `O=c1c(O)cccn1Cc1ccc(-c2ccncc2)cc1` [Compound 148i, 1-(4-(Pyridine-4-yl)benzyl)-3-hydroxypyridine-2-one], at HDAC6, the “HDAC6 inhibition, symbol” value is “NI (No significant Inhibition (below 20% Inhibition))”. Besides, on HDAC1, the “HDAC1 inhibition, symbol” value is listed as “NI (No significant Inhibition (below 20% Inhibition))”. For the same compound, the inhibition at 10 µM against HDAC8 [2] (setting [5]) was determined as 16%.
On to `O=c1c(O)cccn1CCCn1cc(-c2ccccc2)nn1` [Compound 159b, 1-Phenyltriazolylpropyl-3-hydroxypyridine-2-one], for which the inhibition at 10 µM at HDAC6 amounted to 41%; at HDAC1 (setting [5]), 8%; on HDAC8 [2] (setting [5]) it was 47%.
On to `O=c1c(O)cccn1Cc1ccc(-c2ccccc2)cc1` [Compound 142c, 1-(1,1′-Biphenylmethyl)-3-hydroxypyridine-2-one], for which, at HDAC6, the “HDAC6 inhibition, symbol” value is listed as “NI (No significant Inhibition (below 20% Inhibition))”. For the same compound, on HDAC1, the “HDAC1 inhibition, symbol” value was “NI (No significant Inhibition (below 20% Inhibition))”. At HDAC8 [2] (setting [5]), this compound yielded an inhibition at 10 µM of 8%.
